# Data taken from patent publication US11524945B2, “Compounds for treating ILK-mediated diseases” (The Cleveland Clinic Foundation, priority 2018, dated 2022).
# Where two headings read alike, the source gives them in different places.
# Legend:
# [1] = target: CYP 2A6 (Homo sapiens (Human), UniProt P11509); assay: CYP inhibition in human liver microsomes, 2A6; assay type: in vitro ADME
# [2] = tested on: MCF10a cells; assay: Proliferation of normal breast MCF10a cells; assay type: cell-based; details: compounds at final 2 μM, FIG. 5 panel A
# Method: Cells were seeded at 20,000 cells/ml in 12 well plates in complete media. On day 3, the compounds were added at final 2 μM and the cells were counted every 3 days. […] Cells were seeded at 10,000 cells/ml in 12 well plates in complete media. The compounds were added at final 2 μM on day 2 and the cells were counted every 2 days.
# [3] = target: CYP 2E1 (Homo sapiens (Human), UniProt P05181); assay: CYP inhibition in human liver microsomes, 2E1; assay type: in vitro ADME
# [4] = target: CYP 1A2 (Homo sapiens (Human), UniProt P05177); assay: CYP inhibition in human liver microsomes, 1A2; assay type: in vitro ADME
# [5] = target: EGFR (Homo sapiens (Human), UniProt P00533); assay: EGFR binding affinity, EnSpire fluorescence intensity; details: same experimental conditions as ILK
# [6] = target: purified recombinant ILK (Homo sapiens (Human), UniProt Q13418); assay: ILK binding affinity, EnSpire fluorescence intensity
# [7] = target: CYP 2B6 (Homo sapiens (Human), UniProt P20813); assay: CYP inhibition in human liver microsomes, 2B6; assay type: in vitro ADME
# [8] = target: ILK-PINCH-Parvin (IPP) complex (Homo sapiens (Human), UniProt Q13418); assay: IPP-mediated actin bundling assay; assay type: biochemical; details: FIG. 4
# Text: Next, we set out to obtain in vitro evidence of Csbl-1. […] Mutation of L207 into bulky Trp in ILK abolished the MgATP binding to ILK and impaired the formation and morphology of actin bundles (Vaynberg et al., 2018). Using the same actin bundling assay, we examined the effect of Csbl-1 on the IPP-mediated actin bundling. […] In general, more bundles with smaller sizes were observed as a result of Csbl-1 interference. Csbl-1 would knock out MgATP at the ILK site and increase the local concentration of Mg^2+, which may impact the actin bundling process (Tang and Janmey, 1996, Vaynberg et al., 2018).
# [9] = target: CYP 2C9 (Homo sapiens (Human), UniProt P11712); assay: CYP inhibition in human liver microsomes, 2C9; assay type: in vitro ADME
# [10] = Stability in PBS at pH 7.4; assay type: physicochemical
# [11] = Stability in mouse plasma; assay type: in vitro ADME
# [12] = Permeability in Caco2 cell line; assay type: in vitro ADME; details: human
# purified recombinant ILK, sequence (Q13418 whole entry): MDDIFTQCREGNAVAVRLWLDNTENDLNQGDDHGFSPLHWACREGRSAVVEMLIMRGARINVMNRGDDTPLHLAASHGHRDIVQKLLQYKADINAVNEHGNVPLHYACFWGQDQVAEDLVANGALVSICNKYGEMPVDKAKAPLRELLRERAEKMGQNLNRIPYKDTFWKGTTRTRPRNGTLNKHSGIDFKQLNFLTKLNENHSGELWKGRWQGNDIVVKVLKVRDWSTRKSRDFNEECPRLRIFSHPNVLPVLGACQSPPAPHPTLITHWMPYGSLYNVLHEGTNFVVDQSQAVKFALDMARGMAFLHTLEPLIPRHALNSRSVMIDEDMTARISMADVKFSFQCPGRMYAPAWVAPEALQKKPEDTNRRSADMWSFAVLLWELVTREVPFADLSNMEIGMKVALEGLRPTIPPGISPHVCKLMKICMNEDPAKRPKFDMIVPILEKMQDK
# CYP 1A2, sequence (P05177 whole entry): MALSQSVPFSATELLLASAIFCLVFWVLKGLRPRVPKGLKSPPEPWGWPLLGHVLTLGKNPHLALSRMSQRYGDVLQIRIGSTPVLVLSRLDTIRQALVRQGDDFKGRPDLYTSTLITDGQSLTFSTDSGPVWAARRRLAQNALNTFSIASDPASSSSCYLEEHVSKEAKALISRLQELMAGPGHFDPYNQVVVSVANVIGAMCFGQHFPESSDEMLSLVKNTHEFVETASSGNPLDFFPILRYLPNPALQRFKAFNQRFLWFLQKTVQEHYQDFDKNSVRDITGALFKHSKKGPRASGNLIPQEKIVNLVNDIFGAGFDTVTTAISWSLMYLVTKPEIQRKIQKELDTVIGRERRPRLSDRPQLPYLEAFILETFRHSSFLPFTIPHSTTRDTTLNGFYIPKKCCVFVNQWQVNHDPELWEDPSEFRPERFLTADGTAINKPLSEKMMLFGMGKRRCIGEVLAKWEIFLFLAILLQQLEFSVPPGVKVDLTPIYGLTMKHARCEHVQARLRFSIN
# EGFR, sequence (P00533 25-1210): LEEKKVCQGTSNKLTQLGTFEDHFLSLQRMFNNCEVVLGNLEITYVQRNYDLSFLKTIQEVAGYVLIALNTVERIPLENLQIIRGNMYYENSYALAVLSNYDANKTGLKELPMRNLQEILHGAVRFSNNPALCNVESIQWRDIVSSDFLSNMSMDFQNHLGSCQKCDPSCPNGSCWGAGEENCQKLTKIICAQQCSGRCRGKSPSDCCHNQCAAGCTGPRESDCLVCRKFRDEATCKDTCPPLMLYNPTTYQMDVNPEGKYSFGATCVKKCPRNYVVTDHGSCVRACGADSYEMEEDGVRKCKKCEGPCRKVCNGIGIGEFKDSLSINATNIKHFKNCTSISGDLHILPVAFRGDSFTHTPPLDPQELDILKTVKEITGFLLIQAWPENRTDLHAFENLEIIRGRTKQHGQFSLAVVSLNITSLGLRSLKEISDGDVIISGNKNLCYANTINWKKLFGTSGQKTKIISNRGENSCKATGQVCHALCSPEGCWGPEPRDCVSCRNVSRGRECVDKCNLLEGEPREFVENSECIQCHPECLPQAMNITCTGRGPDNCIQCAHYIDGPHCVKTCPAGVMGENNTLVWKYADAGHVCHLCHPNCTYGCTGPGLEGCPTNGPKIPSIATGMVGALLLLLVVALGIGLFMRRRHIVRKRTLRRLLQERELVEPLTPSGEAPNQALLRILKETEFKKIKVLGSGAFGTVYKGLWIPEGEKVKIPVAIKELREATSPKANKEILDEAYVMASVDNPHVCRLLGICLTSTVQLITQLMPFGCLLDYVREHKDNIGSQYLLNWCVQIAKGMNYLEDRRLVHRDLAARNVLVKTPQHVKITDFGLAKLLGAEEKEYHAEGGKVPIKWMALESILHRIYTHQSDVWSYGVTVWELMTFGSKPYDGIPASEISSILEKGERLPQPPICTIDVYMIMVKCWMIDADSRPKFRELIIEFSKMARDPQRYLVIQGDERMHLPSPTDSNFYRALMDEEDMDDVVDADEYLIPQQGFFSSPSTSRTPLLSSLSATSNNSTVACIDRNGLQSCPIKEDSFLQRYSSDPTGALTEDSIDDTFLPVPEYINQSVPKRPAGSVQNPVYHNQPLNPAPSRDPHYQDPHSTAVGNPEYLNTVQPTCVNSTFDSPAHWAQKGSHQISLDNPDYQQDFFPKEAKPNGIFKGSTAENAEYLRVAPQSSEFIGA
# CYP 2E1, sequence (P05181 whole entry): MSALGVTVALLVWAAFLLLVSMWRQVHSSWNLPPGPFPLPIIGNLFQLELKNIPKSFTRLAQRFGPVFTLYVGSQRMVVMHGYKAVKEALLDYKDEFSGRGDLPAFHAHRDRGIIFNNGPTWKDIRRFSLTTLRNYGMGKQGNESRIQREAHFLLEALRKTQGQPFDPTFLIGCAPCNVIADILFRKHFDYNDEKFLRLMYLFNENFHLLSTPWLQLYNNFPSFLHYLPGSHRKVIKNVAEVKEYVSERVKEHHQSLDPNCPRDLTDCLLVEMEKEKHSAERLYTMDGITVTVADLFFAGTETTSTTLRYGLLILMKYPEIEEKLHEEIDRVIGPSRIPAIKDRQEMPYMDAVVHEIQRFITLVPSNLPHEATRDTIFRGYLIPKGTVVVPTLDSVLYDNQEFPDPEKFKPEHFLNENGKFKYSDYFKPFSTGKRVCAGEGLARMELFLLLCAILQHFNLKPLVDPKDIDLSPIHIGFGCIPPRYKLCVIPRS
# CYP 2B6, sequence (P20813 whole entry): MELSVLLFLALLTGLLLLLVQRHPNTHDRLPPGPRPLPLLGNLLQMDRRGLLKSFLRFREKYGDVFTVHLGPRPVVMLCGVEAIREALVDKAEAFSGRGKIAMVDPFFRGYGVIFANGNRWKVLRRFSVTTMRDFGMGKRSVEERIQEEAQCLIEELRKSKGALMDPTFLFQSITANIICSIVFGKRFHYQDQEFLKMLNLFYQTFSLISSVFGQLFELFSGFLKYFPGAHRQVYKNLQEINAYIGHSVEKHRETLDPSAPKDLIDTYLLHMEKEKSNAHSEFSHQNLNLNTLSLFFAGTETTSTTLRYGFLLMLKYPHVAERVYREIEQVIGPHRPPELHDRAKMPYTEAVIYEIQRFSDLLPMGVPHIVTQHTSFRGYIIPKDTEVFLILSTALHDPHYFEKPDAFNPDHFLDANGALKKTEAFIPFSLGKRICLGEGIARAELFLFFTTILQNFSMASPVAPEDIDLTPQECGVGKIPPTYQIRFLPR
# CYP 2A6, sequence (P11509 whole entry): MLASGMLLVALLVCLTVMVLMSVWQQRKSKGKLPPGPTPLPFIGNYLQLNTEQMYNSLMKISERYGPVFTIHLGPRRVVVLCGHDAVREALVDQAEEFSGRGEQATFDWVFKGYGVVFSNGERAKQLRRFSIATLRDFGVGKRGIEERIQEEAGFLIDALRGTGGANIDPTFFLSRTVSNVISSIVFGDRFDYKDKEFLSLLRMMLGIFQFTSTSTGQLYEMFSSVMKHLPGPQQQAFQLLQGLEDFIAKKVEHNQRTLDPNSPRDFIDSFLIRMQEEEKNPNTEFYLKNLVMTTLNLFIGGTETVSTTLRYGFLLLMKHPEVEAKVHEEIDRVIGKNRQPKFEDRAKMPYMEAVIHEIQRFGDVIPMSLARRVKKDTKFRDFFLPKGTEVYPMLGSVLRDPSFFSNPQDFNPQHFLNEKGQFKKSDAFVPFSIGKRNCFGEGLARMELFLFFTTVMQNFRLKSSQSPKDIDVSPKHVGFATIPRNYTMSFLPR
# ILK-PINCH-Parvin (IPP) complex, sequence (Q13418 whole entry): as the sequence (Q13418 whole entry) above
# ILK-PINCH-Parvin (IPP) complex, sequence (P48059 whole entry partner): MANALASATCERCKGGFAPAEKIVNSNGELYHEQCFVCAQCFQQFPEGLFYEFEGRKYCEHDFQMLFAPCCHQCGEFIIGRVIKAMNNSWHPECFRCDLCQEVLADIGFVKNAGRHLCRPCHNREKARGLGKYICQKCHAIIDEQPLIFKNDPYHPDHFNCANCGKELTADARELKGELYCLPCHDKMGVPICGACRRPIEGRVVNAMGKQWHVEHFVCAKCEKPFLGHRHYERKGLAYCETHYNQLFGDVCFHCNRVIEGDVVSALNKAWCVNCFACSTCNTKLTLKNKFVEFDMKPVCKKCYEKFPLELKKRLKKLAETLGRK
# ILK-PINCH-Parvin (IPP) complex, sequence (Q9NVD7 whole entry partner): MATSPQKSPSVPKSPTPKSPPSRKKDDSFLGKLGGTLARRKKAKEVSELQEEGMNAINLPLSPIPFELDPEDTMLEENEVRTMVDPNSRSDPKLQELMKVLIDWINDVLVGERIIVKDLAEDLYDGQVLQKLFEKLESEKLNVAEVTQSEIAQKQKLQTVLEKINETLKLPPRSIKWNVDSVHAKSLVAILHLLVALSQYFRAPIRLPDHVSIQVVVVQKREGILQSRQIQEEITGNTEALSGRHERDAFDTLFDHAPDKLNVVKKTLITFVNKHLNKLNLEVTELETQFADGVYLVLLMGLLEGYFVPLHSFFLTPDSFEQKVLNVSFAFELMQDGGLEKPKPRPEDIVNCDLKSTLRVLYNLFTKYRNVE
# CYP 2C9, sequence (P11712 whole entry): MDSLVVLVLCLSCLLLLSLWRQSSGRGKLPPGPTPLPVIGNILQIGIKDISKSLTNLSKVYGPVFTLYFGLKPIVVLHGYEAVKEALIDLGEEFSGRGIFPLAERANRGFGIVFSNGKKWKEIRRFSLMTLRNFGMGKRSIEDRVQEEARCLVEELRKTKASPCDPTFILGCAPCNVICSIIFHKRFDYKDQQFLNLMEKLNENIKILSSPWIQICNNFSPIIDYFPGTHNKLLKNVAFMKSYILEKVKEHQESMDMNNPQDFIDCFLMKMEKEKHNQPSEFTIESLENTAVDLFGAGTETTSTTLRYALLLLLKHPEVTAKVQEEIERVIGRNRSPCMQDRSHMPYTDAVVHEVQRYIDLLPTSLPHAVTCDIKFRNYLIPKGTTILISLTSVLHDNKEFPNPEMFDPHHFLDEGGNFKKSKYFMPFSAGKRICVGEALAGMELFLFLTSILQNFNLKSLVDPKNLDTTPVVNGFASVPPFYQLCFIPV
smiles,measurement,setting,value
C#Cc1cc(Nc2ncnc3cc(OCCOC)ccc23)cc(OCCOCC)c1 [Compound 1],IC50,[1],> 50 µM
same,effect on proliferation of MCF10a cells,[2],little effect
same,IC50,[3],> 50 µM
same,IC50,[4],33.3 µM
same,KD to EGFR,[5],too weak to be accurately determined
same,Binding Difference ILK (Kd)/EGFR (Kd),[6]; EnSpire fluorescence intensity,0.1565
same,Kd,"[6]; EnSpire fluorescence intensity, read-out: ILK - Binding affinity",2.77 µM
same,Kd,"[6]; fluorescence-based binding assay, purified ILK, read-out: KD to ILK",~2.77 µM
same,IC50,[7],> 50 µM
same,effect on IPP-induced actin bundles,[8],substantial change of IPP-induced actin bundles
same,IC50,[9],13.8 µM
same,Remaining Percentage (%),"[10]; PBS pH 7.4, 0 min",100.00%
same,Remaining Percentage (%),"[10]; PBS pH 7.4, 30 min",102.02%
same,Remaining Percentage (%),"[10]; PBS pH 7.4, 60 min",105.41%
same,Remaining Percentage (%),"[10]; PBS pH 7.4, 120 min",103.04%
same,Remaining Percentage (%),"[10]; PBS pH 7.4, 180 min",104.93%
same,Remaining Percentage (%),"[10]; PBS pH 7.4, 240 min",99.54%
same,Remaining Percentage (%),[11]; 0 min,100.00%
same,Remaining Percentage (%),[11]; 15 min,96.17%
same,Remaining Percentage (%),[11]; 30 min,96.17%
same,Remaining Percentage (%),[11]; 45 min,97.56%
same,Remaining Percentage (%),[11]; 60 min,96.17%
same,Remaining Percentage (%),[11]; 120 min,93.73%
same,recovery,"[12]; Caco-2, Caco2, AP-BL, read-out: Recovery (%)AP-BL",51%
same,recovery,"[12]; Caco-2, Caco2, BL-AP, read-out: Recovery (%)BL-AP",53.5%
same,efflux ratio,"[12]; Caco-2, Caco2",0.48
same,Papp A→B,"[12]; Caco-2, Caco2, A-B",15.4 ×10⁻⁶ cm/s
same,Papp B→A,"[12]; Caco-2, Caco2, B-A",7.31 ×10⁻⁶ cm/s
